Laboratory results taken from ChEMBL document CHEMBL1201862, “PubChem BioAssay data set” (2004).
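Five compound concentrations were applied to cells in 96-well plates for 48 hours; endpoints were derived by simple linear interpolation of the resulting dose-response curve. GI50 is the concentration that inhibits growth by half.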 Calls of active or inactive are those of the source. No stated cut-off is given here; in the data, active = GI50 up to about 1.1 µM and inactive = higher.

How the values were obtained:
Assay in all cases: NCI-60 cell line screen, 48 h
EKVX = test system: EKVX
SNB-19 = test system: SNB-19
OVCAR-3 = test system: OVCAR-3
BT-549 = test system: BT-549
Malme-3M = test system: Malme-3M
TK-10 = test system: TK-10

## C=C1C(=O)O[C@@H]2C=C(C)C3=CC(=O)[C@](C)(C[C@H](OC(=O)/C(C)=C\C)[C@@H]12)O3
EKVX
  GI50: 2770 nM (inactive)
SNB-19
  GI50: 8470 nM (inactive)
OVCAR-3
  GI50: 491 nM (active)
BT-549
  GI50: 493 nM (active)
Malme-3M
  GI50: 1340 nM (inactive)
TK-10
  GI50: 826 nM (active)
